Laboratory results as given in patent publication US20040248211A1, “ICAM-related protein” (priority 1992, published 2004).

Tests used:
[1] = tested on: SKW3 cell binding to ICAM-R; assay: Peptide inhibition of SKW3 cell adhesion to soluble ICAM-R coated plastic; format: cell-based, human; settings: peptide at 1-2 mg/ml; PMA; soluble ICAM-R coated wells
Source text: Based on amino acid sequence alignment with known β1 integrin binding domains in fibronectin and based on epitope mapping of anti-ICAM-R monoclonal antibodies that block cell adhesion (see Table 11 in Example 22), ICAM-R peptides corresponding to potential integrin binding sites were synthesized by Macromolecular Resources (Colorado State University, Fort Collins, Colo.). Four ICAM-R sequences which lie between or at the border of predicted beta strands in domains 1 and 3 of were chosen. Similar but not identical β-strand predictions for ICAM-1 are set out in Staunton et al., Cell, 61: 243-254 (1990). Inhibition was assayed using a system involving cell adhesion to soluble ICAM-R coated plastic. Calcein-labeled cells (see Example 7 Section A above) were incubated with peptide at 1-2 mg/ml for 20 minutes at 25° C. and the cells were transferred to wells of a 96-well plate previously coated with soluble ICAM-R (see Example 10) and containing 10 μg/ml final concentration phorbol 12-myristate 13-acetate (PMA). After 50 minutes, the plate was inverted in PBS for 10 minutes to remove unbound cells. Bound cells were quantitated using a fluorescence concentration analyzer.

Jurkat T cells = assay: MIP-1 alpha ELISA, Jurkat on co-immobilized antibodies; format: cell-based, human; settings: anti-ICAM-R 10 μg/ml co-immobilized with sub-optimal OKT3; OKT3 = sub-optimal concentration alone
Method: In addition to induction in monocytes, the expression of MIP-1 alpha in the Jurkat T leukemic cell line upon treatment with ICR-5.1, ICR-4.2 or ICR-9.2 was also examined. A sub-optimal dose of anti-CD3 antibody OKT3 (500 ng/ml) in PBS-CMF was plated onto flat-bottomed 96-well polystyrene plates and incubated overnight at 4° C. Then, after removing well contents, monoclonal antibody OKT3, ICR-5.1, ICR-4.2, or ICR-9.2 (10 μg/ml in PBS-CMF) was plated overnight at 4° C. Wells were blocked with 1% BSA in PBS-CMF at 37° C. for 1 hour and then rinsed in PBS-CMF. Jurkat T cells were seeded into wells at 2×10^5/well in RPMI/10%FCS+10 μg/ml polymyxin B—SO4. Cells were incubated in wells for 4, 6, or 8 hours or overnight at 37° C. in 5% CO2. Supernatants were harvested by transferring well contents to round-bottomed 96-well polystyrene plates, harvested by centrifuging for 5 minutes at 1200 rpm and by re-transferring to new round-bottomed plates. MIP-1 alpha release into the cell supernatant was assayed by a specific ELISA for MIP-1 alpha.

Jurkat T leukemic cells = assay: F-actin and G-actin cell content; format: cell-based, human; settings: ICR-1.1 without gam
Method: Cellular shape changes (such as cell spreading) as well as T-cell activation are associated with changes in the cytoskeletal actin network manifested by alteration of the ratio of globular actin (G-actin) to filamentous actin (F-actin). To test whether the engagement by ICAM-R antibodies of ICAM-R expressed on Jurkat T leukemic cells would induce changes in cellular actin ratios, studies measuring F-actin and G-actin cell content were carried out by methods known in the art.

human PBL = assay: Tyrosine phosphorylation in PBL after crosslinking; format: cell-based; settings: soluble antibody 30 ug/ml, goat anti-mouse IgG 100 ug/ml
Method: Human PBL was obtained by Ficoll-Hypaque centrifugation and were incubated for 5 minutes with soluble ICR-4.2, OKT3 or anti-HLA-(1×10^7 cells were incubated with each antibody at 30 ug/ml). The cells were then washed and goat anti-mouse IgG (Cappell) was added to a final concentration of 100 ug/ml. After varying periods of time, the cells were lysed in detergent and lysates were electrophoresed on a 10% acrylamide gel, transferred to blotting paper. Blots were then probed with the anti-phosphotryosine antibody 4G10.

HL60 cells = assay: IL-8 release from HL60; format: cell-based, human
Method: Monocytes were isolated by elutriation from peripheral blood of normal donors. […] After blocking free sites, the cells were placed into the wells in medium. […] Those cells plated in wells treated with BSA plus or minus LPS were rounded and not spread. After 8 or 18 hours of incubation at 37° C., the medium was removed and assayed for IL-8 immunoreactivity. […] By 18 hours, IL-8 levels in media from ICR monoclonal antibody wells were much elevated over control levels. […] Similar experiments with monocytic cell lines (U937 and HL60) to determine if ICR monoclonal antibody can induce IL-8 release were conducted. U937 cells responded to each of the ICR monoclonal antibody treated wells by releasing IL-8 into the conditioned medium. […] No detectable morphological changes were detected with the U937 or HL60 cells.

THP-1 cells = assay: MIP-1 alpha secretion by THP-1 on immobilized soluble LFA-1; format: cell-based, human; settings: background approximately 100 pg/ml
Method: A soluble version of LFA-1, when immobilized onto plastic wells, induced THP-1 cells to secrete approximately […] MIP-1 alpha, whereas background levels were approximately 100 pg/ml.

Substance: ICAM-1 70-74: ICAM-1 domain 1 peptide (DGQST, SEQ ID NO: 25)
- % Inhibition CD18-Dependent Binding (SKW3) [1]: did not inhibit binding

Substance: OKT3: anti-CD3 antibody [reference compound]
- MIP-1 alpha expression relative to BSA background (Jurkat T cells): three-fold
- time to peak F-actin content (Jurkat T leukemic cells; OKT3 plus gam): ≤ 10 min
- F-actin content (Jurkat T leukemic cells; OKT3 plus goat anti-mouse crosslinker (gam)): rapid, transient increase in F-actin content
- tyrosine phosphorylation after crosslinking (human PBL): Phosphorylation of substrates were also observed

Substance: lipopolysaccharide [LPS]
- IL-8 release (HL60 cells): did induce a marked release

Substance: soluble version of LFA-1: soluble version of LFA-1 immobilized onto plastic wells
- MIP-1 alpha secreted (THP-1 cells): approximately 1000 μg/ml
